Assay results from patent US10597388B2, “Pyridazinone herbicides” (FMC CORPORATION, priority 2014, dated 2020).

What was measured:
Test in all cases: Test E greenhouse herbicide test, pre- and postemergence
Assay type in all cases: in vivo
Details in all cases: Preemergence
[1] = tested on: foxtail, green (green foxtail, Setaria viridis)
In short: (§1)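 Seeds were sown in silt loam and sprayed preemergence with compound in a non-phytotoxic solvent mix containing surfactant; for postemergence, plants at 2 to 18 cm (1- to 4-leaf stage) in peat-based potting medium were sprayed with the same formulation. After 14 to 21 d in a greenhouse, injury was rated visually against controls (0–100).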

[2] = tested on: crabgrass, large (large crabgrass, Digitaria sanguinalis)
In short: as §1

[3] = tested on: barnyardgrass (Echinochloa crus-galli)
In short: as §1

[4] = tested on: crabgrass, Brazilian (Brazilian crabgrass, Digitaria horizontalis)
In short: as §1

[5] = tested on: foxtail, giant (giant foxtail, Setaria faberii)
In short: as §1

[6] = tested on: velvetleaf (Abutilon theophrasti)
In short: as §1

[7] = tested on: panicum, fall (fall panicum, Panicum dichotomiflorum)
In short: as §1

[8] = tested on: arrowleaf sida (Sida rhombifolia)
In short: as §1

[9] = tested on: Italian ryegrass (Lolium multiflorum)
In short: as §1

[10] = tested on: surinam grass (Brachiaria decumbens)
In short: as §1

[11] = tested on: lambsquarters (Chenopodium album)
In short: as §1

[12] = tested on: nightshade (eastern black nightshade, Solanum ptycanthum)
In short: as §1

[13] = tested on: goosegrass (Eleusine indica)
In short: as §1

[14] = tested on: kochia (Kochia scoparia)
In short: as §1

[15] = tested on: corn (Zea mays)
In short: as §1

[16] = tested on: horseweed (Conyza canadensis)
In short: as §1

[17] = tested on: sandbur (southem sandbur, Cenchrus echinatus)
In short: as §1

[18] = 62 g ai/ha, scale 0 to 100 (0 no effect, 100 complete control)
[19] = 31 g ai/ha, scale 0 to 100, 0 no effect, 100 complete control
[20] = 125 g ai/ha, visual, scale 0 no effect to 100 complete control
[21] = 250 g ai/ha, visual, scale 0 no effect to 100 complete control
[22] = 125 g ai/ha, scale 0 to 100 (0 no effect, 100 complete control)

CCOC(=O)Oc1c(C)nn(C)c(=O)c1-c1c(CC)ccc2ccccc12 [Compound 37]
Plant response rating, Foxtail, Green [1, 18]: 60
Plant response rating, Foxtail, Green [1, 19]: 0
Plant response rating, Foxtail, Green [1, 20]: 65
Plant response rating, Foxtail, Green [1, 21]: 80
Plant response rating, Crabgrass, Large [2, 18]: 75
Plant response rating, Crabgrass, Large [2, 19]: 50
Plant response rating, Crabgrass, Large [2, 20]: 80
Plant response rating, Crabgrass, Large [2, 21]: 90
Plant response rating, Barnyardgrass [3, 18]: 0
Plant response rating, Barnyardgrass [3, 19]: 0
Plant response rating, Barnyardgrass [3, 20]: 0
Plant response rating, Barnyardgrass [3, 21]: 30
Plant response rating, Crabgrass, Brazil [4, 18]: 85
Plant response rating, Crabgrass, Brazil [4, 19]: 70
Plant response rating, Crabgrass, Brazil [4, 20]: 90
Plant response rating, Crabgrass, Brazil [4, 21]: 95
Plant response rating, Foxtail, Giant [5, 18]: 70
Plant response rating, Foxtail, Giant [5, 19]: 65
Plant response rating, Foxtail, Giant [5, 20]: 80
Plant response rating, Foxtail, Giant [5, 21]: 90
Plant response rating, Velvetleaf [6, 18]: 50
Plant response rating, Velvetleaf [6, 22]: 70
Plant response rating, Velvetleaf [6, 19]: 30
Plant response rating, Velvetleaf [6, 21]: 100
Plant response rating, Panicum, Fall [7, 18]: 100
Plant response rating, Panicum, Fall [7, 22]: 100
Plant response rating, Panicum, Fall [7, 19]: 90
Plant response rating, Panicum, Fall [7, 21]: 100
Plant response rating, Arrowleaf Sida [8, 18]: 85
Plant response rating, Arrowleaf Sida [8, 19]: 70
Plant response rating, Arrowleaf Sida [8, 20]: 90
Plant response rating, Arrowleaf Sida [8, 21]: 98
Plant response rating, Ryegrass, Italian [9, 18]: 95
Plant response rating, Ryegrass, Italian [9, 22]: 100
Plant response rating, Ryegrass, Italian [9, 19]: 85
Plant response rating, Ryegrass, Italian [9, 21]: 100
Plant response rating, Surinam Grass [10, 18]: 75
Plant response rating, Surinam Grass [10, 22]: 75
Plant response rating, Surinam Grass [10, 19]: 50
Plant response rating, Surinam Grass [10, 21]: 90
Plant response rating, Lambsquarters [11, 18]: 100
Plant response rating, Lambsquarters [11, 19]: 100
Plant response rating, Lambsquarters [11, 20]: 98
Plant response rating, Lambsquarters [11, 21]: 100
Plant response rating, Nightshade [12, 18]: 80
Plant response rating, Nightshade [12, 22]: 98
Plant response rating, Nightshade [12, 19]: 90
Plant response rating, Nightshade [12, 21]: 98
Plant response rating, Goosegrass [13, 18]: 35
Plant response rating, Goosegrass [13, 19]: 35
Plant response rating, Goosegrass [13, 20]: 75
Plant response rating, Goosegrass [13, 21]: 80
Plant response rating, Kochia [14, 18]: 0
Plant response rating, Kochia [14, 19]: 0
Plant response rating, Kochia [14, 20]: 0
Plant response rating, Kochia [14, 21]: 65
Plant response rating, Corn [15, 18]: 0
Plant response rating, Corn [15, 19]: 0
Plant response rating, Corn [15, 20]: 0
Plant response rating, Corn [15, 21]: 0
Plant response rating, Horseweed [16, 18]: 100
Plant response rating, Horseweed [16, 19]: 100
Plant response rating, Horseweed [16, 20]: 100
Plant response rating, Horseweed [16, 21]: 100
Plant response rating, Sandbur [17, 18]: 35
Plant response rating, Sandbur [17, 22]: 50
Plant response rating, Sandbur [17, 19]: 20
Plant response rating, Sandbur [17, 21]: 65
